Measured values from PubChem BioAssay AID1996.
≈ marks a conversion by molar mass, not a printed value.

settings: buffer; pH 7.4; 200.0 µM

SMILES	solubility kinetic [µg/mL]
COc1ccccc1N1CC(C)(C)C(=O)N(C(=O)c2ccc(C)cc2)C1=S	2.1 (≈ 5.49 µM)
O=C1CSC2(N1)C1CC3CC(C1)CC2C3 (stereo unspecified)	12.5 (≈ 56 µM)
O=C(OCc1cncs1)c1ccccc1	> 32.9
COc1ccc(C(=O)NC(C)CCc2ccccc2)cc1 (stereo unspecified)	41.9 (≈ 148 µM)
CCCCOC(=O)C1=C(C)NC(=O)NC1c1cccc([N+](=O)[O-])c1 (stereo unspecified)	12.3 (≈ 36.9 µM)
CCCC(=O)Nc1c(-c2cccc(OC)c2)c(=O)c2ccccc2n1C	> 52.6
CC(C)Oc1ccccc1C1NC(=O)CCC1[N+](=O)[O-] (stereo unspecified)	> 41.7
CCC(C(=O)OC)n1cnc2c(oc3ccccc32)c1=O (stereo unspecified)	> 42.9
Cc1nc(NC(=O)c2ccc(Br)o2)ccc1Br	< 0.4
CC1CCN(C(=O)/C(=C\c2ccco2)NC(=O)c2ccccc2)CC1	> 50.8
CSc1ccc(Cl)c(C(=O)Nc2nccs2)c1	2.8 (≈ 9.83 µM)
O=C(O)c1cccc(S(=O)(=O)Nc2cccc3ccccc23)c1	> 49.1
COc1ccc(NC(C)=O)cc1S(=O)(=O)Nc1ccc(S(=O)(=O)N2CCCCC2)cc1	> 70.1
Cn1cnc2cc(NCc3ccccc3O)ccc21	36.9 (≈ 146 µM)
N#CCc1ccc(NC(=O)Nc2cccc3ccccc23)cc1	0.6 (≈ 1.99 µM)
Cc1ccccc1C(=O)N1CCC(C(=O)Oc2ccc(C#N)cc2)CC1	> 52.3
O=C(OCC(=O)N1CCC(Cc2ccccc2)CC1)c1ccccc1O	2.2 (≈ 6.22 µM)
O=Cc1cn(CC(O)CN2CCCCC2)c2ccccc12 (stereo unspecified)	> 43
CCCCOc1ccc(CC(=O)NO)cc1	> 33.5
NC(=O)c1cc[n+](Cc2ccc([N+](=O)[O-])cc2)cc1.[Br-]	> 50.7
COc1cccc(C(=O)Nc2ccc(NC(=O)Cc3ccccc3)cc2)c1	< 0.4
CC(C)(C)C(O)CN1CCCC1.Cl (stereo unspecified)	> 31.2
Cc1ccnc(NC(=O)c2ccc(Cl)cc2Cl)n1	31.7 (≈ 112 µM)
COc1ccccc1CNC(=O)c1[nH]c(C)c(C(C)=O)c1C	13.3 (≈ 44.3 µM)
Cn1c(=O)[nH]c(=O)c2c1[nH]c(=S)n2Cc1ccc(Cl)cc1	42.3 (≈ 131 µM)

SMILES	solubility kinetic [µg/mL]
N#C/C(C(N)=O)=C1/SC=C(c2ccccc2)N1c1ccccc1	0.4 (≈ 1.25 µM)
Cc1cc(Cc2cc(C)c(N)cc2C)c(C)cc1N	> 38.2
O=C(NCC(=O)N1CCN(c2ccccc2F)CC1)c1ccco1	> 49.7
C/C(O)=c1/c(=O)nc2cccc3c2=c1c1ccccc1c3=O	< 0.6
Cn1c(C2=C(O)CN(c3ccccc3)C2=N)nc2ccccc21	44.5 (≈ 146 µM)
CC(C)=C1SC(N2CCN(c3ccc(C)c(Cl)c3)CC2)=NC1=O	1.9 (≈ 5.43 µM)
O=C(NC1CCN(Cc2ccc(F)cc2)CC1)c1ccccc1	40.7 (≈ 130 µM)
CCC(=O)Nc1nc2ccc([N+](=O)[O-])cc2s1	0.9 (≈ 3.58 µM)
CCc1ccccc1NC(=O)c1cc(-c2cccs2)on1	0.8 (≈ 2.68 µM)
CC(C)c1ccccc1NC(=S)NCc1ccncc1	41.1 (≈ 144 µM)
CC(C)(C)C(=O)N1CCN(C(c2ccccc2)c2ccccc2)CC1	28.3 (≈ 84.1 µM)
O=Nc1c(O)n(Cc2ccccc2)c2ccccc12	> 37.8
Cc1ccc(C(C)NC(=O)C2CCCC2)cc1C (stereo unspecified)	31.4 (≈ 128 µM)
Nc1[nH]c(=O)[nH]c(=O)c1N=Nc1ccc(C(=O)O)cc1	> 41.3
CCCN1C[C@H](CSC)C[C@@H]2c3cccc4[nH]cc(c34)C[C@H]21.CS(=O)(=O)O	2.3
c1ccc(-n2cnc3ccccc32)cc1	24.6 (≈ 127 µM)
CC(=O)C(C(C)=O)C(c1ccccc1)c1nc2ccccc2[nH]c1=O (stereo unspecified)	0.9 (≈ 2.69 µM)
COc1ccc2[nH]c(C(=O)N3CCNCC3)cc2c1OC	36.2 (≈ 125 µM)
Cc1nc2ccccc2c(=O)n1-c1ccc(Cl)cc1Cl	> 45.8
N#Cc1c(F)cccc1NCc1cccs1	1.3 (≈ 5.6 µM)
COC(=O)c1ccsc1NS(=O)(=O)c1ccccc1	44.1 (≈ 148 µM)
Cn1cnc(NCc2ccccc2)c1[N+](=O)[O-]	1.2 (≈ 5.17 µM)
COC(=O)c1cccc(NC(=O)c2ccc[n+]([O-])c2)c1	> 40.8
Cc1ccc(OCC(=O)Nc2cccnc2Cl)cc1C	0.8 (≈ 2.75 µM)
Cc1ccccc1Nc1nc(N)nc(CSc2nnc(C)n2C)n1	> 51.4

SMILES	solubility kinetic [µg/mL]
O=C(CSc1ccc(-c2cccnc2)nn1)N1CCCCC1	> 47.2
COCCN(CCOc1cc(C)cc(C)c1)Cc1ccc(Cl)cc1	5.6 (≈ 16.1 µM)
COc1ccc(S(=O)(=O)NC(C)C(=O)NCc2ccncc2)cc1Cl (stereo unspecified)	> 57.6
CCOC(=O)c1c(C)[nH]c(C(=O)COC(=O)c2cccnc2Cl)c1C	4.7 (≈ 12.9 µM)
CCNC(=S)N1CCN(C(=O)C(Cc2ccccc2)NC(C)=O)CC1 (stereo unspecified)	> 54.4
O=C(CN1CCN(Cc2ccccc2)CC1)N/N=C/c1ccco1	> 49
COc1ccccc1NC(=O)NC1(C(=O)N2CCCCC2)CCCCC1	10 (≈ 27.8 µM)
CCOC(=O)CNc1nc(Cl)nc(NC(C)(C)C)n1	> 43.2
O=C(/C=C/c1ccc(Cl)c(Cl)c1)NCCCn1ccnc1	38.8 (≈ 120 µM)
CCS(=O)(=O)c1ccc(O)c(NC(=O)c2ccc(S(=O)(=O)N3CCCCCC3)cc2)c1	11.6 (≈ 24.9 µM)
O=C(c1ccc(Br)o1)N1CC=C(c2ccccc2)CC1	33 (≈ 99.3 µM)
COc1ccc(Cl)cc1NC(=O)Nc1ccccc1SC	< 0.3
CNc1snc(C)c1C(=O)OCC(=O)NCc1ccccc1OC	3.8 (≈ 10.9 µM)
O=C(CCN1CCN(CCO)CC1)Nc1ccc(Br)cc1	> 53.4
O=C(CSc1cccc[n+]1[O-])Nc1ccc(Br)cc1Br	6.7 (≈ 16 µM)
Cc1noc(C)c1C(=O)OC(C)C(=O)N1CCc2ccccc21 (stereo unspecified)	6 (≈ 19.1 µM)
CN(C(=O)CN1CCN(c2ccccc2F)CC1)C1CCCc2ccccc21 (stereo unspecified)	> 57.2
CN1C(=O)c2cccc3c(S(=O)(=O)Nc4ccccc4F)ccc1c23	9.6 (≈ 26.9 µM)
COc1ccc(C(=O)NCCN2CCOCC2)cc1[N+](=O)[O-]	> 46.4
CC(C)CNC(=O)c1ccc2c(c1)C(=O)N(C1CCCCC1)C2=O	4.4 (≈ 13.4 µM)
COc1ccc(OCC(=O)NCc2ccc(Cl)cc2)cc1	3.3 (≈ 10.8 µM)
O=C(/C=C/C=C/c1ccccc1)CC1(O)C(=O)Nc2ccccc21 (stereo unspecified)	> 47.9
N#Cc1ccccc1CCN1C(=O)c2ccccc2C1=O	19.6 (≈ 70.9 µM)
Cc1ccccc1OCCCC(=O)NC1CCCCC1	3.7 (≈ 13.4 µM)
Cc1cccc(C)c1NC(=S)NCCSc1ccc(Cl)cc1	3.3 (≈ 9.4 µM)

SMILES	solubility kinetic [µg/mL]
O=S(=O)(NCCc1ccccc1)c1ccc(Br)s1	27.5 (≈ 79.4 µM)
Cc1ccc(NC(=O)CN2CCCCCC2)cc1[N+](=O)[O-]	1.2 (≈ 4.12 µM)
CC1(C)CC(=O)C=C(NCCc2c[nH]c3ccccc23)C1	> 42.4
CC(O)c1nc2cc([N+](=O)[O-])ccc2n1Cc1ccccc1 (stereo unspecified)	6.9 (≈ 23.2 µM)
c1ccc2c(c1)CCc1c-2nc2ccccc2c1N1CCOCC1	10.5 (≈ 33.2 µM)
CCC(C)NC(=O)COC(=O)c1ccc(Cl)cc1O (stereo unspecified)	4.7 (≈ 16.4 µM)
CC1=NN(C(=O)c2ccccc2C)C(O)(c2ccc(Cl)cc2)C1 (stereo unspecified)	> 49.3
Nc1no[n+]([O-])c1-c1ccccc1	24.2 (≈ 137 µM)
COc1ccc(OCC(O)CNC(=O)c2ccccc2)cc1 (stereo unspecified)	40.1 (≈ 133 µM)
COc1ccc(CC(=O)OCC(=O)N2CCCC(C)C2)cc1 (stereo unspecified)	> 45.8
CCCCC(=O)NC(=S)Nc1ccc(NC(=O)C(C)C)c(OC)c1	5.4 (≈ 15.4 µM)
CNC(=O)CO/N=C/c1ccc(N(C)C)cc1	> 35.3
O=Cc1ccc(C(=O)OCC(=O)Nc2ccc(F)cc2F)cc1	3.7 (≈ 11.6 µM)
CCOC(=O)CNC(=O)C1c2ccccc2Oc2ccccc21	1.9 (≈ 6.1 µM)
CN(C)S(=O)(=O)c1ccc(C(=O)Nc2ccc3nc(N4CCOCC4)sc3c2)cc1	4.1 (≈ 9.18 µM)
CC1CCCCC1NC(=O)c1ccncc1 (stereo unspecified)	> 32.7
Cc1csc(SCC(=O)NC(=O)C2CCCCC2)n1	> 44.8
O=C(NCc1cccnc1)c1cc(C(=O)C2CC2)c[nH]1	> 40.4
N#Cc1c(C(F)(F)F)cc(=O)n2c1[nH]c1ccccc12	> 41.6
CCCC(=O)N/C(N)=N/c1nc2ccccc2o1	11.9 (≈ 48.3 µM)
CCOc1ccc2oc(C(=O)N3CC(C)OC(C)C3)c(C)c2c1 (stereo unspecified)	41.6 (≈ 131 µM)
O=C(NCCCn1ccnc1)c1ccc(Cl)s1	> 40.5
COC(=O)c1ccc(OC(=O)c2cccnc2SC)cc1	< 0.6
Cc1ccccc1-c1nc(-c2ccc(Br)o2)no1	1 (≈ 3.28 µM)
CN(C(=O)COc1ccc(Br)cc1Cl)C1CCCCC1	19.8 (≈ 54.9 µM)

SMILES	solubility kinetic [µg/mL]
O=C(Cc1ccccc1)NCC(=O)N1CCN(Cc2cccc(Cl)c2)CC1	> 57.9
N#Cc1cccc(C#N)c1Oc1ccc(N)cc1	> 35.3
CC(CN1CCOCC1)OC(=O)c1cccc(Cl)c1.Cl (stereo unspecified)	43.2
O=C1c2ccccc2CN1CCNC(=S)NC1CCCCC1	> 47.6
O=C(COC(=O)C1CCC1)NCCc1ccc(Cl)cc1Cl	> 49.5
Cc1ccc(C(=O)c2ccccc2C(=O)OCC(=O)N2CCCC2)cc1	> 52.7
O=[N+]([O-])c1ccc2c(c1)c1ccccc1n2CCO	6.2 (≈ 24.2 µM)
CCCCCCCCNc1nc(Cl)nc(NCCN2CCOCC2)n1	0.5 (≈ 1.35 µM)
Cc1nc2c(cnn2-c2ccccc2)c(=O)[nH]1	> 33.9
O=C1/C(=C/c2ccccn2)COc2ccccc21	11.3 (≈ 47.6 µM)
CC(=O)Nc1cccc(CCc2nc3ccccc3[nH]2)c1	> 41.9
Cc1ccc(N/C=C/C(=O)c2ccccc2)cc1Br	< 0.7
CN1CCN(C(=O)/C(C#N)=C/c2ccc(F)cc2)CC1.Cl	> 46.5
COc1ccccc1CNC(=O)COC(=O)/C=C/c1ccc2ccccc2n1	9.8 (≈ 26 µM)
CNC(=O)COC(=O)/C=C/c1cccs1	> 33.8
CSc1ccc(CN2CCN(CC=C(C)C)C(CCO)C2)cc1 (stereo unspecified)	> 50.2
CC(c1ccccc1)n1c(CO)nc2ccccc21 (stereo unspecified)	35.2 (≈ 140 µM)
CSc1cccc(CN2CCC(CCC(=O)NC3CC3)CC2)c1	> 49.9
O=C(CN1CCN(c2ccccn2)CC1)Nc1ccccc1F	42.3 (≈ 135 µM)
Nc1cnn(C2OC(CO)C(O)C2O)c(=O)n1 (stereo unspecified)	> 36.6
Cc1ccc(S(=O)(=O)N2CCOCC2)cc1C(=O)NC1=NCCS1	> 55.4
